Measurements taken from ChEMBL document CHEMBL5543109, “Novel β-Hairpin Antimicrobial Peptide Containing the β-Turn Sequence of -NG- and the Tryptophan Zippers Facilitate Self-Assembly into Nanofibers, Exhibiting Excellent Antimicrobial Performance” (J Med Chem, 2024).
Converted amounts (≈) assume the structure as drawn.

Columns and labels:
[1] = system: Staphylococcus aureus; assay: Bactericidal activity against Staphylococcus aureus ATCC 25923 incubated for 18 hrs by broth microdilution method; type: functional
[2] = system: Pseudomonas aeruginosa; assay: Antibacterial activity against Pseudomonas aeruginosa ATCC 27853 incubated for 18 hrs by broth microdilution method; type: functional
[3] = system: Escherichia coli; assay: Antibacterial activity against Escherichia coli ATCC 25922 incubated for 18 hrs by broth microdilution method; type: functional
[4] = system: Erythrocyte; assay: Hemolytic activity in mouse erythrocytes assessed as concentration required to cause 10% hemolysis incubated for 1 hr; type: toxicity, cell-based
[5] = system: Staphylococcus aureus; assay: Antibacterial activity against Staphylococcus aureus ATCC 25923 incubated for 18 hrs by broth microdilution method; type: functional
[6] = Self-assembly property of compound in water assessed as beta-sheet content; type: physicochemical
[7] = system: Staphylococcus aureus; assay: Antibacterial activity against Staphylococcus aureus at 2 times MIC preincubated for 1 hr with trypsin followed by enzyme inactivation and bacterial addition and measured after 18 hrs; type: functional; conditions: time 19 hrs
[8] = system: Staphylococcus epidermidis; assay: Antibacterial activity against Staphylococcus epidermidis ATCC 12228 incubated for 18 hrs by broth microdilution method; type: functional
[9] = system: Staphylococcus epidermidis; assay: Bactericidal activity against Staphylococcus epidermidis ATCC 12228 incubated for 18 hrs by broth microdilution method; type: functional
[10] = system: Klebsiella pneumoniae; assay: Bactericidal activity against Klebsiella pneumoniae ATCC 700603 incubated for 18 hrs by broth microdilution method; type: functional
[11] = system: Bacillus subtilis; assay: Bactericidal activity against Bacillus subtilis ATCC 23857 incubated for 18 hrs by broth microdilution method; type: functional
[12] = system: Pseudomonas aeruginosa; assay: Bactericidal activity against Pseudomonas aeruginosa ATCC 27853 incubated for 18 hrs by broth microdilution method; type: functional
[13] = Retention time of the compound; type: physicochemical
[14] = system: Escherichia coli; assay: Bactericidal activity against Escherichia coli ATCC 25922 incubated for 18 hrs by broth microdilution method; type: functional
[15] = Self-assembly property of compound in PBS assessed as beta-sheet content; type: physicochemical; conditions: buffer
[16] = system: Bacillus subtilis; assay: Antibacterial activity against Bacillus subtilis ATCC 23857 incubated for 18 hrs by broth microdilution method; type: functional
[17] = Self-assembly property of compound in 50% TFE assessed as beta-sheet content; type: physicochemical
[18] = system: Klebsiella pneumoniae; assay: Antibacterial activity against Klebsiella pneumoniae ATCC 700603 incubated for 18 hrs by broth microdilution method; type: functional
[19] = system: Staphylococcus aureus; assay: Antibacterial activity against Staphylococcus aureus at 2 times MIC preincubated for 1 hr with chymotrypsin followed by enzyme inactivation and bacterial addition and measured after 18 hrs; type: functional; conditions: time 19 hrs
[20] = Acute toxicity in mouse assessed as cellular atrophy at 25.8 mg/kg, ip by H and E staining based assay; type: organism-based; conditions: in vivo
[21] = Acute toxicity in ip dosed mouse by karber method; type: organism-based; conditions: in vivo, ip
[22] = Acute toxicity in mouse assessed as mortality rate at 25 mg/kg, ip by karber method; type: organism-based; conditions: in vivo
[23] = Acute toxicity in mouse assessed as tissue hemorrhage at 25.8 mg/kg, ip by H and E staining based assay; type: organism-based; conditions: in vivo
[24] = Acute toxicity in mouse assessed as alveolar cavity wrinkling at 25.8 mg/kg, ip by H and E staining based assay; type: organism-based; conditions: in vivo
[25] = Acute toxicity in mouse assessed as mortality rate at 21 mg/kg, ip by karber method; type: organism-based; conditions: in vivo
[26] = Acute toxicity in mouse assessed as mortality rate at 30 mg/kg, ip by karber method; type: organism-based; conditions: in vivo
[27] = Acute toxicity in mouse assessed as inflammatory cell infiltration at 25.8 mg/kg, ip by H and E staining based assay; type: organism-based; conditions: in vivo
[28] = Acute toxicity in mouse assessed as renal cell necrosis at 25.8 mg/kg, ip by H and E staining based assay; type: organism-based; conditions: in vivo
[29] = Acute toxicity in mouse assessed as hepatocyte necrosis at 25.8 mg/kg, ip by H and E staining based assay; type: organism-based; conditions: hepatocytes
[30] = Acute toxicity in mouse assessed as lung cell necrosis at 25.8 mg/kg, ip by H and E staining based assay; type: organism-based; conditions: in vivo

Work on `NCCCC[C@@H](NC(=O)[C@H](N)Cc1c[nH]c2ccccc12)C(=O)N[C@H](Cc1c[nH]c2ccccc12)C(=O)N[C@H](CCCCN)C(=O)N[C@H](Cc1c[nH]c2ccccc12)C(=O)N1CCC[C@@H]1C(=O)NCC(=O)N[C@H](Cc1c[nH]c2ccccc12)C(=O)N[C@H](CCCCN)C(=O)N[C@H](Cc1c[nH]c2ccccc12)C(=O)N[C@H](CCCCN)C(=O)N[C@H](Cc1c[nH]c2ccccc12)C(N)=O` yielded an MBC [1] of 8 µM (≈ 14.4 µg/mL), an MIC [2] of 4 µM (≈ 7.2 µg/mL) and an MIC [3] of 4 µM (≈ 7.2 µg/mL). For the same compound, the MHC [4] was 147.6 µM, the MIC [5] was 4 µM (≈ 7.2 µg/mL) and the Activity [6] was 30.5%. For the same compound, the Activity [7] was 100%, the MIC [8] was 4 µM (≈ 7.2 µg/mL) and the MBC [9] was 8 µM (≈ 14.4 µg/mL). It also gave an MBC [10] of 8 µM (≈ 14.4 µg/mL), an MBC [11] of 2 µM (≈ 3.6 µg/mL) and an MBC [12] of 32 µM (≈ 57.6 µg/mL). It also gave a Retention_time [13] of 14.321 min, an MBC [14] of 4 µM (≈ 7.2 µg/mL) and an Activity [15] of 44.2%. The MIC [16] was 2 µM (≈ 3.6 µg/mL), the Activity [17] was 50% and the MIC [18] was 8 µM (≈ 14.4 µg/mL). For the same compound, the Activity [19] was 100%.

For POLYMYXIN B, the Activity [20] was “Toxic”, the MHC [4] was over 512 µM and the LD50 [21] was 25.68 mg/kg. The Activity [22] was 60%, the Activity [23] was “Toxic” and the Activity [24] was “Toxic”. The Activity [25] was 0%, the Activity [26] was 80% and the Activity [27] was “Toxic”. For the same compound, the Activity [28] was “Toxic”, the Activity [29] was “Toxic” and the Activity [30] was “Toxic”.
